According to US7198803B2, “Sustained release oral preparations” (Nippon Shinyaku Co., Ltd., priority 2000, dated 2007):

How the values were obtained:
[1] = plasma half life of the drug; settings: in vivo
[2] = test system: calcium-sensitive potassium channel; settings: known from PCT WO99/36068; cited from earlier work

For `Cc1c(-c2ccccc2F)[nH]c(N)c1C#N` [2-amino-3-cyano-5-(2-fluorophenyl)-4-methylpyrrole], the plasma half life [1] is listed as “short plasma half life” and the “potassium channel activating effect” value [2] is listed as “bladder-selective calcium-sensitive potassium channel activating effect”.
